Results as given in patent US7560468B2, “Substituted 1,4,8-triazaspiro[4,5]decan-2-one compounds” (Gruenenthal GmbH, priority 2004, dated 2009).

Assays:
human CB2 receptor = human CB2 receptor (Homo sapiens, UniProt P34972); experiment: Affinity to the cannabinoid receptor CB2, displacement of [3H]-CP 55,940; settings: for Inhibition CB2 10 μM, % inhibition: membranes of HEK 293EBNA cells with human CB2 receptor; for Ki: CB2, Cheng Prusoff correction of IC50; for inhibition at 10 µM: read-out: Inhibition CB2 10 μM, % inhibition
human CB2 receptor, sequence (P34972 whole entry): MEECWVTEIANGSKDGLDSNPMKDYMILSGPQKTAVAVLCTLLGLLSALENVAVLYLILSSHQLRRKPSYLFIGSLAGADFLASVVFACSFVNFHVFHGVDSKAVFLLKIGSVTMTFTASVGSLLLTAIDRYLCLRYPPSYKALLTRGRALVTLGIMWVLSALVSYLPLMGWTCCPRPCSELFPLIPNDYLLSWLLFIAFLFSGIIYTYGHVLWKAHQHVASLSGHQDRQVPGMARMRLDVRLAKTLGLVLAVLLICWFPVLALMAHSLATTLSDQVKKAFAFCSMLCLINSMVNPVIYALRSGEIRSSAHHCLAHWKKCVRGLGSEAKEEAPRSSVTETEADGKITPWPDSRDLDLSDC
Method: The radioligand used was tritium-labeled 5-(1,1-dimethylheptyl)-2-(5-hydroxypropyl)cyclohexyl)-1-alpha,2-beta,5-alpha)-phenol (^[3]H—CP 55,940 with 103.4 of Ci/mmol, 1 m Ci/mL). Determination was carried out in a test buffer comprising 50 mM of Tris-HCl, 2.5 mm of EDTA, 5 mm of MgCl2 and 1.0 mg/mL of fatty acid-free BSA. The test substances were in each case dissolved in DMSO.
The affinity of the compounds of the invention to the CB2 receptor is determined by their ability to displace ^[3]H—CP from 55,940 of CB2 receptors in membranes of HEK 293 EBNA cells. For this purpose 8 μg of membranes (20 mL of a solution of membranes in a concentration of 400 g/ml) are incubated in wells of a microtiter plate with a 0.33 nM of solution of [3]H-CP 55,949 (120 of Ci/mmol) in a total volume of test buffer of 200 μL for 90 minutes at 30° C.
Subsequently, either the test substances or WIN 55,212-2 for determination the non-specific binding are placed, dissolved in each case in dimethyl sulphoxide, in the wells so that in each case a concentration of the relevant substances of 10 μM is obtained.
Incubation is continued for a further 40 minutes at 30° C. dc. […] The filters are washed nine times with 0.5 mL of ice-cold washing buffer (50 nM of Tris-HCl, 5 mM of MgCl2, 2.5 mm of EDTA, 2% of BSA, pH 7.4), air-dried, placed in scintillation liquid, and the radioactivity is determined with the aid of a scintillation counter.
The percentage displacement of the radio-active ligand ^[3]H—CP 55,940 from its binding to the CB2 receptor is indicated as percentage inhibition of the specific binding. In order to determine Ki the IC50 inhibition concentrations are calculated based on of the percentage displacement achieved by the compounds of the general formula I to be tested at various concentrations causing a 50 percent displacement of the radioactive ligands.

5-HT transporter = target: T1, 5-HT transporter (Rattus norvegicus, UniProt P31652); experiment: Inhibition of 5-HT uptake in synaptosomes; type: biochemical; settings: for inhibition at 1 µM: read-out: Uptake_5-HT, rat, 1 μM, % inhibition
T1 construct: from tissue; host or cells: rat brain synaptosomes (marrow/medulla and pons), P2 fraction
T1 sequence (P31652 whole entry): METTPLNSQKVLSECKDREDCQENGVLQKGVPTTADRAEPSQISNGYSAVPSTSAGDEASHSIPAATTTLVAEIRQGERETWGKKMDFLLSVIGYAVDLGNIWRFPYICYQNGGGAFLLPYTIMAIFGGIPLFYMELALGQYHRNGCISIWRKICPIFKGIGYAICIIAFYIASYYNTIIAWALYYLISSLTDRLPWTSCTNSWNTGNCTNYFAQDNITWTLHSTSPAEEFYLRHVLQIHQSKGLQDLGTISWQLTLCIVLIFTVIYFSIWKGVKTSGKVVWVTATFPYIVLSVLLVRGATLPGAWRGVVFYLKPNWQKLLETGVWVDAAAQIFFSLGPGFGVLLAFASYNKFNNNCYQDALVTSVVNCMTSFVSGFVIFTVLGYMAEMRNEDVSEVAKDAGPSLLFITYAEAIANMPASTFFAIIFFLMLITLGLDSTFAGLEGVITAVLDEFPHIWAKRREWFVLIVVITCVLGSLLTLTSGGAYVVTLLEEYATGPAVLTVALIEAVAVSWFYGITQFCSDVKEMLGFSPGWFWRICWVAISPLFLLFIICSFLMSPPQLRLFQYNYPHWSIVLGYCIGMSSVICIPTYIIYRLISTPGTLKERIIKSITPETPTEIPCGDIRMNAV

[1] = system: batrachotoxin (BTX) binding site of the sodium channel; experiment: Affinity to the batrachotoxin (BTX) binding site of the sodium channel; settings: rat cerebrocortex synaptosomes, [3H]-batrachotoxinin A20 α-benzoate 10 nM; test concentration not given
NA transporter = experiment: Inhibition of noradrenalin uptake in synaptosomes; type: biochemical

Row | Compound | Inhibition CB2 10 μM, % inhibition (human CB2 receptor) | Ki (human CB2 receptor) | Uptake_5-HT, rat, 1 μM, % inhibition (5-HT transporter) | BTX Inhibition [1] | inhibition at 1 µM (5-HT transporter) | inhibition at 10 µM (human CB2 receptor) | Uptake (NA), rat, 10 μM, % inhibition (NA transporter)
1 | 1,3-Dibenzyl-8-(4-chlorobenzolsulfonyl)-1,4,8-triazaspiro[4,5]decan-2-one [Example 248] | 87% | 1.2 µM | – | – | – | – | –
2 | 1,3-Dibenzyl-8-(4-methoxy-benzolsulfonyl)-1,4,8-triazaspiro[4,5]decan-2-one [Example 249] | 80% | 3.5 µM | – | – | – | – | –
3 | 8-Benzolsulfonyl-1,3-dibenzyl-1,4,8-triazaspiro[4,5]decan-2-one [Example 247] | 72% | 4 µM | – | – | – | – | –
4 | CC(C)C1NC2(CCN(S(=O)(=O)c3ccccc3Cl)CC2)NC1=O (stereo not shown) [Example 8, 8-(2-Chlorobenzolsulfonyl)-3-isopropyl-1,4,8-triazaspiro[4,5]decan-2-one] | 41% | – | 55% | – | – | – | –
5 | O=C1C(Cc2ccccc2)NC2(CCN(S(=O)(=O)c3cccs3)CC2)N1Cc1ccccc1 (stereo not shown) [Example 16, 1,3-Dibenzyl-8-(thiophen-2-sulfonyl)-1,4,8-triazaspiro[4,5]decan-2-one] | – | – | – | 50 | 82% | 58% | –
6 | O=C1C(Cc2ccccc2)NC2(CCN(S(=O)(=O)c3cc(Cl)sc3Cl)CC2)N1Cc1ccccc1 (stereo not shown) [Example 20, 1,3-Dibenzyl-8-(2,5-dichlorothiophen-3-sulfonyl)-1,4,8-triazaspiro[4,5]decan-2-one] | – | – | – | 54 | 81% | 66% | –
7 | Cc1cc(C)c(C)c(S(=O)(=O)N2CCC3(CC2)NC(Cc2ccccc2)C(=O)N3Cc2ccccc2)c1C (stereo not shown) [Example 24, 1,3-Dibenzyl-8-(2,3,5,6-tetramethylbenzolsulfonyl)-1,4,8-triazaspiro[4,5]decan-2-one] | 56% | – | 66% | 67 | – | – | –
8 | CCCCN1C(=O)C(Cc2ccccc2)NC12CCN(S(=O)(=O)c1ccc(C(C)(C)CC)cc1)CC2 (stereo not shown) [Example 28, 3-Benzyl-1-butyl-8-[4-(1,1-dimethylpropyl)benzolesulfonyl]-1,4,8-triazaspiro[4,5]decan-2-one] | 40% | – | 75% | 41 | – | – | –
9 | COc1cc(C)c(S(=O)(=O)N2CCC3(CC2)NC(Cc2ccccc2)C(=O)N3Cc2ccccc2)c(C)c1C (stereo not shown) [Example 31, 1,3-Dibenzyl-8-(4-methoxy-2,3,6-trimethylbenzolsulfonyl)-1,4,8-triazaspiro[4,5]decan-2-one] | 57% | – | 67% | 82 | – | – | –
10 | CCc1ccc(S(=O)(=O)N2CCC3(CC2)NC(Cc2ccccc2)C(=O)N3Cc2ccccc2)cc1 (stereo not shown) [Example 35, 1,3-Dibenzyl-8-(4-ethylbenzolsulfonyl)-1,4,8-triazaspiro[4,5]decan-2-one] | 61% | – | 79% | 54 | – | – | –
11 | CCCCN1C(=O)C(Cc2ccccc2)NC12CCN(S(=O)(=O)c1cccc(Cl)c1)CC2 (stereo not shown) [Example 36, 3-Benzyl-1-butyl-8-(3-chlorobenzolsulfonyl)-1,4,8-triazaspiro[4,5]decan-2-one] | 40% | – | 65% | 49 | – | – | –
12 | CSCCC1NC2(CCN(S(=O)(=O)c3ccc(F)cc3F)CC2)N(Cc2cc(C)cc(C)c2)C1=O (stereo not shown) [Example 42, 8-(2,4-Difluorobenzolsulfonyl)-1-(3,5-dimethylbenzyl)-3-(2-methylsulfanylethyl)-1,4,8-triazaspiro[4,5]decan-2-one] | 48% | – | – | 56 | – | – | –
13 | O=C1C(Cc2ccccc2)NC2(CCN(S(=O)(=O)c3ccc([N+](=O)[O-])cc3)CC2)N1Cc1ccccc1 (stereo not shown) [Example 43, 1,3-Dibenzyl-8-(4-nitrobenzolsulfonyl)-1,4,8-triazaspiro[4,5]decan-2-one] | 62% | – | 71% | 51 | – | – | –
14 | CCCCOc1ccc(S(=O)(=O)N2CCC3(CC2)NC(Cc2ccccc2)C(=O)N3CC(=O)OCC)cc1 (stereo not shown) [Example 73, Ethyl[3-benzyl-8-(4-butoxy-benzolsulfonyl)-2-oxo-1,4,8-triazaspiro[4,5]dec-1-yl]-acetate] | 46% | – | 80% | 52 | – | – | –
15 | CCCCN1C(=O)C(C(C)C)NC12CCN(C(=S)NC(C)C)CC2 (stereo not shown) [Example 107, 1-Butyl-3-isopropyl-2-oxo-1,4,8-triazaspiro[4,5]decan-8-thiocarboxylic acid isopropylamide] | – | – | – | – | 28% | 56% | –
16 | CSCCC1NC2(CCN(C(=O)Nc3cccc(C#N)c3)CC2)N(Cc2ccccc2)C1=O (stereo not shown) [Example 208, 1-Benzyl-3-(2-methylsulfanylethyl)-2-oxo-1,4,8-triazaspiro[4,5]decan-8-carboxylic acid (3-cyanobenzol)amide] | – | – | 45% | 41 | – | – | 49%
17 | CCCCN1C(=O)C(CCSC)NC12CCN(C(=O)Nc1cc(OC)c(OC)c(OC)c1)CC2 (stereo not shown) [Example 210, 1-Butyl-3-(2-methylsulfanylethyl)-2-oxo-1,4,8-triazaspiro[4,5]decan-8-carboxylic acid (3,4,5-trimethoxy-benzol)amide] | – | – | 32% | 44 | – | – | 36%
18 | CSCCC1NC2(CCN(C(=O)Nc3ccc(Cl)c(C(F)(F)F)c3)CC2)N(Cc2ccccc2)C1=O (stereo not shown) [Example 211, 1-Benzyl-3-(2-methylsulfanylethyl)-2-oxo-1,4,8-triazaspiro[4,5]decan-8-carboxylic acid (4-chloro-3-trifluoromethylbenzol)amide] | – | – | 45% | 85 | – | – | 40%
19 | CCOc1ccc(NC(=O)N2CCC3(CC2)NC(CCSC)C(=O)N3Cc2ccccc2)cc1 (stereo not shown) [Example 213, 1-Benzyl-3-(2-methylsulfanylethyl)-2-oxo-1,4,8-triazaspiro[4,5]decan-8-carboxylic acid (4-ethoxy-benzol)amide] | – | – | 39% | 41 | – | – | 37%
20 | CSCCC1NC2(CCN(C(=O)Nc3cccc(C(C)=O)c3)CC2)N(Cc2ccccc2)C1=O (stereo not shown) [Example 214, 1-Benzyl-3-(2-methylsulfanylethyl)-2-oxo-1,4,8-triazaspiro[4,5]decan-8-carboxylic acid (3-acetylbenzol)amide] | – | – | 51% | 40 | – | – | 36%
21 | CCCCN1C(=O)C(C(C)C)NC12CCN(C(=O)Nc1cccc(C(=O)OCC)c1)CC2 (stereo not shown) [Example 215, Ethyl 3-[(1-butyl-3-isopropyl-2-oxo-1,4,8-triazaspiro[4,5]decan-8-carbonyl)amino]-benzoate] | – | – | – | 51 | 29% | – | 33%
22 | CCCCN1C(=O)C(CCSC)NC12CCN(C(=O)NCc1ccc(Cl)c(Cl)c1)CC2 (stereo not shown) [Example 219, 1-Butyl-3-(2-methylsulfanylethyl)-2-oxo-1,4,8-triazaspiro[4,5]decan-8-carboxylic acid 3,4-dichlorobenzylamide] | – | – | – | 70 | 37% | – | 42%
23 | C=CCN1C(=O)C(C(C)C)NC12CCN(C(=O)Nc1ccc(OC(F)(F)F)cc1)CC2 (stereo not shown) [Example 220, 1-Allyl-3-isopropyl-2-oxo-1,4,8-triazaspiro[4,5]decan-8-carboxylic acid (4-trifluoromethoxy-benzol)amide] | – | – | 39% | 44 | – | – | 39%
24 | CSCCC1NC2(CCN(C(=O)Nc3ccccc3)CC2)N(Cc2ccccc2C#N)C1=O (stereo not shown) [Example 224, 1-(2-Cyanobenzyl)-3-(2-methylsulfanylethyl)-2-oxo-1,4,8-triazaspiro[4,5]decan-8-carboxylic acid benzolamide] | – | – | 37% | 30 | – | – | 38%
25 | CCOC(=O)CN1C(=O)C(Cc2ccccc2)NC12CCN(C(=O)NCc1ccc(Cl)c(Cl)c1)CC2 (stereo not shown) [Example 225, Ethyl[3-benzyl-8-(3,4-dichlorobenzylcarbamoyl)-2-oxo-1,4,8-triazaspiro[4,5]dec-1-yl]-acetate] | – | – | – | 77 | 43% | – | 33%
26 | COc1cccc(NC(=O)N2CCC3(CC2)NC(CCSC)C(=O)N3Cc2cccc(C#N)c2)c1 (stereo not shown) [Example 236, 1-(3-Cyanobenzyl)-3-(2-methylsulfanylethyl)-2-oxo-1,4,8-triazaspiro[4,5]decan-8-carboxylic acid (3-methoxy-benzol)amide] | – | – | 32% | 42 | – | – | 34%
27 | CSCCC1NC2(CCN(C(=O)Nc3cccc(C#N)c3)CC2)N(Cc2ccc(F)cc2)C1=O (stereo not shown) [Example 244, 1-(4-Fluorobenzyl)-3-(2-methylsulfanylethyl)-2-oxo-1,4,8-triazaspiro[4,5]decan-8-carboxylic acid (3-cyanobenzol)amide] | – | – | 52% | 47 | – | – | 32%
28 | CS(=O)(=O)N1CCC2(CC1)NC(Cc1ccccc1)C(=O)N2Cc1ccccc1 (stereo not shown) [Example 246, 1,3-Dibenzyl-8-methansulfonyl-1,4,8-triazaspiro[4,5]decan-2-one] | – | – | – | – | – | 50% | –
